Results on eleven molecules are retold here after patent US20260199492A1, “PSD-95 DOMAIN INHIBITOR, AND PREPARATION METHOD THEREFOR AND USE THEREOF” (SHENZHEN SALUBRIS PHARMACEUTICALS CO., LTD, priority 2023, published 2026).

One data set addresses PDZ1-2 of PSD95 (Homo sapiens, UniProt P78352). Put plainly: Fluorescence polarization competition binding assay of PDZ1-2 with probe 5-FAM-NA-1. A general note: Fluorescence polarisation rises when a labelled molecule tumbles more slowly, as on binding a larger partner.
Data set [1] in a line: In vitro plasma stability experiment (compounds), without or with tPA. Conditions: human, 37° C., initial concentration 10 μM.
Procedure: • Plasma: Human plasma is commercially available. • Reagents: DMSO (dimethyl sulfoxide), disodium hydrogen phosphate, sodium dihydrogen phosphate, methanol, formic acid, and propranolol (internal standard) are commercially available. • Instrument: AB SCIEX QTRAP 5500+.
(§1) 5 μL of stock solution (10 mM) was diluted with 495 μL of 0.05 M sodium phosphate buffer to 100 μM of dosing solution. The final concentration of tested drug for incubation was 10 μM.
(§2) A certain volume (e.g., 27 μL or 24 μL) of plasma was added into a 96-well plate. An appropriate volume of the internal standard working solution (e.g., 150 μL) was immediately added to precipitate. […] This was performed in duplicate.
(§3) Then, an appropriate amount of plasma (e.g., 27 μL or 24 μL) was added at the designed time points (e.g., 5 min, 15 min, 30 min, 60 min, and 120 min, etc.), and the parallel replicate wells were performed at each time point. […] The reaction was terminated by adding an appropriate amount of internal standard working solution (e.g., 150 μL) at the end of the time, and the mixture was mixed thoroughly.
(§4) The mixture was centrifuged at 4000 rpm for 15 min. A certain amount of the supernatant was taken, mixed with a certain amount of water, and then subjected to LC/MS/MS analysis. LC-MS detection conditions were as follows: • Chromatography column: YMC Triart C18, 50*3.0 mm, 2.1 μm. • Mobile phase: Gradient elution was performed using water (0.1% formic acid)-acetonitrile according to the table below.
(§5) The relative content of drug at each time point was calculated using the initial 0 point as 100%. The half-life of the drug was calculated by plotting “relative drug content” against “incubation time” using GraphPad Prism 5 software.
The next data set can be described thus: in vitro. To be noted: human, plasma.
Data set [2] can be described thus: Toxicological experiment: serum UREA and CREA after 5 days of i.v. dosing. It counts as in vivo, SD rats. As for the experimental part: The compounds of Examples 1-8 were accurately weighed into suitable EP tubes, and the vehicle (saline) was added to formulate a solution of a concentration of 15 mg/mL. The solution was filtered using a 0.2 μm filter for future use.
A total of 18 male SD rats of 6-7 weeks of age were used for test. After the animal quarantine and acclimatization period, the animals were randomly divided into 6 groups according to their body weights measured before grouping, vehicle control group (saline) as well as example compounds groups, 3 animals/group. Using the above prepared solution, the animal was administered intravenously via the tail vein at a dosage of 30 mg/kg and a dosing volume of 2 mL/kg. The dosing volume for each animal was calculated according to the body weight. Administration was performed once daily for 5 consecutive days. After 2 h of administration on day 5, the animals were deeply anesthetized by intraperitoneal injection of sodium pentobarbital. The thoracic cavity was opened, and blood was collected from the abdominal aorta into blood collection tubes containing inert separation gel and coagulant. The serum was collected by centrifugation (4000 rpm, 10 min) after about 1 h of resting. The concentrations of UREA and CREA in the serum were detected using a biochemical analyzer. The percentage change of each example compound relative to the vehicle control group was calculated using the formula: %=(Concentration of example compound−Concentration of vehicle control group)/Concentration of vehicle control group.

Data set [3] in a line: In vitro stability experiment of cell-penetrating peptides in human plasma.
Procedure: as §1, §2, §3, §4, §5
Setting [4] is: With tPA T1/2, human plasma, with rt-PA […].
Where [5] appears, read: Without tPA T1/2, human plasma, without tPA.
Where [6] appears, read: male SD rats, 30 mg/kg i.v. once daily for 5 days, serum 2 h after dosing on day 5.
Setting [7] is: plasma, Without tPA T1/2, cell-penetrating peptide, human plasma, initial concentration 10 μM, without tPA.
The mark [8] stands for this setting: plasma, With tPA T1/2, cell-penetrating peptide, human plasma, initial concentration 10 μM, with tPA.

For orientation: IC50 means the midpoint of a concentration-inhibition curve. Higher therefore signals lower potency. The term half-life denotes the time in which the quantity being followed falls by half. High values mean slow decline, low ones rapid decline.

Square brackets hold non-standard residues; d marks the D form. Peptide text beside a SMILES is read from it. Arg(Me) = CNC(=N)NCCC[C@H](N)C(=O)O A value given as a limit tells only on which side of the number the result lay.

Sequence of PDZ1-2 of PSD95 (P78352 61-249 limits assumed): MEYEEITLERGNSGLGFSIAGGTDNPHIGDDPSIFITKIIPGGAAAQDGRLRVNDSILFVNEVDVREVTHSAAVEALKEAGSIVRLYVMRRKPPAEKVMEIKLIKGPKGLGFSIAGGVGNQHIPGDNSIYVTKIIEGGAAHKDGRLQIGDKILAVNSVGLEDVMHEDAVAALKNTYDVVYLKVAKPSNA

For `CC[C@H](C)[C@H](NC(=O)[C@H](CO)NC(=O)[C@H](CO)NC(=O)[C@H](CC(C)C)NC(=O)[C@@H](CCCCN)NC(=O)[C@H](CCCNC(=N)N)NC(=O)[C@H](CCCNC(=N)N)NC(=O)[C@H](CCCNC(=N)NC)NC(=O)[C@H](CCC(N)=O)NC(=O)[C@@H](CCCNC(=N)N)NC(=O)[C@H](CCCNC(=N)N)NC(=O)[C@H](CCCCN)NC(=O)[C@H](CCCCN)NC(=O)[C@](C)(CCCNC(=N)N)NC(=O)CNC(=O)[C@@H](N)Cc1ccc(O)cc1)C(=O)N[C@@H](CCC(=O)O)C(=O)N[C@@H](CO)C(=O)N[C@@H](CC(=O)O)C(=O)N[C@H](C(=O)O)C(C)C` (relative stereo) [Compound I13], the IC50 at PDZ1-2 of PSD95 worked out at 6.33 µM. Moreover, the half-life at 10 μM in data set [1] (setting [4]) stood at 14.5 h; in data set [1] (setting [5]), 10.7 h.

Take `CC[C@H](C)[C@H](NC(=O)[C@H](CO)NC(=O)[C@H](CO)NC(=O)[C@H](CC(C)C)NC(=O)[C@@H](CCCCN)NC(=O)[C@H](CCCNC(=N)N)NC(=O)[C@H](CCCNC(=N)N)NC(=O)[C@H](CCCNC(=N)NC)NC(=O)[C@H](CCC(=O)O)NC(=O)[C@@H](CCCNC(=N)N)NC(=O)[C@H](CCCNC(=N)N)NC(=O)[C@H](CCCCN)NC(=O)[C@H](CCCCN)NC(=O)[C@](C)(CCCNC(=N)N)NC(=O)CNC(=O)[C@@H](N)Cc1ccc(O)cc1)C(=O)N[C@@H](CCC(=O)O)C(=O)N[C@@H](CO)C(=O)N[C@@H](CC(=O)O)C(=O)N[C@H](C(=O)O)C(C)C` (relative stereo) [Compound I15]: the IC50 at PDZ1-2 of PSD95 turned out to be 7.89 µM. The half-life was 27.2 h in “in vitro” (With tPA T1/2) and > 33.3 h in the data set “in vitro” (Without tPA T1/2).

As to `CC[C@H](C)[C@H](NC(=O)CCOCCOCCN(CCOCCOCCC(=O)N[C@H](C(=O)N[C@@H](CCC(=O)O)C(=O)N[C@H](C(=O)N[C@@H](CC(=O)O)C(=O)N[C@H](C(=O)O)C(C)C)[C@@H](C)O)[C@@H](C)CC)C(=O)[C@H](CCCNC(=N)N)NC(=O)[C@H](CCCNC(=N)N)NC(=O)[C@@H](CCCNC(=N)N)NC(=O)[C@H](CCC(N)=O)NC(=O)[C@@H](CCCNC(=N)N)NC(=O)[C@H](CCCNC(=N)N)NC(=O)[C@H](CCCCN)NC(=O)[C@H](CCCCN)NC(=O)[C@@H](CCCNC(=N)N)NC(=O)CNC(=O)[C@@H](N)Cc1ccc(O)cc1)C(=O)N[C@@H](CCC(=O)O)C(=O)N[C@H](C(=O)N[C@@H](CC(=O)O)C(=O)N[C@H](C(=O)O)C(C)C)[C@@H](C)O` [Compound 43], the half-life in the data set “in vitro” (With tPA T1/2, human plasma, 37° C., initial concentration 10 μM, with rt-PA […]) was 20.5 h; in “in vitro” (Without tPA T1/2, human plasma, 37° C., initial concentration 10 μM, without tPA), > 33.3 h.

Molecule `CC[C@H](C)[C@H](NC(=O)CCOCCOCCN(CCOCCOCCC(=O)N[C@H](C(=O)N[C@@H](CCC(=O)O)C(=O)N[C@H](C(=O)N[C@@H](CC(=O)O)C(=O)N[C@H](C(=O)O)C(C)C)[C@@H](C)O)[C@@H](C)CC)C(=O)[C@H](CCCNC(=N)N)NC(=O)[C@H](CCCNC(=N)N)NC(=O)[C@@H](CCCNC(=N)N)NC(=O)[C@H](CCC(=O)O)NC(=O)[C@@H](CCCNC(=N)N)NC(=O)[C@H](CCCNC(=N)N)NC(=O)[C@H](CCCCN)NC(=O)[C@H](CCCCN)NC(=O)[C@@H](CCCNC(=N)N)NC(=O)CNC(=O)[C@@H](N)Cc1ccc(O)cc1)C(=O)N[C@@H](CCC(=O)O)C(=O)N[C@H](C(=O)N[C@@H](CC(=O)O)C(=O)N[C@H](C(=O)O)C(C)C)[C@@H](C)O` [Compound 65] came in with a half-life at 10 μM in data set [1] (setting [4]) of 10.5 h. Moreover, the half-life at 10 μM in data set [1] (setting [5]) is > 33.3 h. In data set [2] (setting [6]), the “CREA, percentage change compared to vehicle control group” value is on record as −3.3% and the “UREA, percentage change compared to vehicle control group” value was 23.7%.

`CC[C@H](C)[C@H](NC(=O)[C@H](CO)NC(=O)[C@H](CO)NC(=O)[C@H](CC(C)C)NC(=O)[C@@H](CCCCN)NC(=O)[C@H](CCCNC(=N)N)NC(=O)[C@H](CCCNC(=N)N)NC(=O)[C@H](CCCNC(=N)NC)NC(=O)[C@H](CCC(=O)O)NC(=O)[C@@H](CCCNC(=N)N)NC(=O)[C@H](CCCNC(=N)N)NC(=O)[C@H](CCCCN)NC(=O)[C@H](CCCCN)NC(=O)[C@@H](CCCNC(=N)N)NC(=O)CNC(=O)[C@@H](N)Cc1ccc(O)cc1)C(=O)N[C@@H](CCC(=O)O)C(=O)N[C@@H](CO)C(=O)N[C@@H](CC(=O)O)C(=O)N[C@H](C(=O)O)C(C)C` [Compound I1] (H-YG[dR]KKR[dR]E[Arg(Me)]RR[dK]LSSIESDV-OH): the half-life stood at 9.18 h in “in vitro” (With tPA T1/2) and 18.6 h in the data set “in vitro” (Without tPA T1/2).

On to `CC[C@H](C)[C@H](NC(=O)[C@H](CO)NC(=O)[C@H](CO)NC(=O)[C@H](CC(C)C)NC(=O)[C@@H](CCCCN)NC(=O)[C@H](CCCNC(=N)N)NC(=O)[C@H](CCCNC(=N)N)NC(=O)[C@@H](CCCNC(=N)N)NC(=O)[C@H](CCC(N)=O)NC(=O)[C@@H](CCCNC(=N)N)NC(=O)[C@H](CCCNC(=N)N)NC(=O)[C@H](CCCCN)NC(=O)[C@H](CCCCN)NC(=O)[C@@H](CCCNC(=N)N)NC(=O)CNC(=O)[C@@H](N)Cc1ccc(O)cc1)C(=O)N[C@@H](CCC(=O)O)C(=O)N[C@@H](CO)C(=O)N[C@@H](CC(=O)O)C(=O)N[C@H](C(=O)O)C(C)C` [NoNo-42, reference compound] (H-YG[dR]KKR[dR]Q[dR]RR[dK]LSSIESDV-OH; N-terminus and C-terminus assumed), for which the IC50 at PDZ1-2 of PSD95 turned out to be 9.71 µM. Moreover, the half-life at 10 μM in the data set “in vitro” is 6.88 h. Besides, in data set [2] (rat, in vivo, iv, 30 mg/kg), the “CREA, percentage change compared to vehicle control group” value was determined as 308.8% and the “UREA, percentage change compared to vehicle control group” value came out at 237.9%.

In data set [3] (setting [7]), `N=C(N)NCCC[C@H](NC(=O)[C@H](CCCNC(=N)N)NC(=O)[C@H](CCCNC(=N)N)NC(=O)[C@H](CCC(N)=O)NC(=O)[C@H](CCCNC(=N)N)NC(=O)[C@H](CCCNC(=N)N)NC(=O)[C@H](CCCCN)NC(=O)[C@H](CCCCN)NC(=O)[C@H](CCCNC(=N)N)NC(=O)CNC(=O)[C@@H](N)Cc1ccc(O)cc1)C(=O)O` [TAT-1, reference compound] gave a half-life at 10 μM of 1.52 h.

On to `N=C(N)NCCC[C@H](NC(=O)[C@@H](CCCNC(=N)N)NC(=O)[C@H](CCC(N)=O)NC(=O)[C@@H](CCCNC(=N)N)NC(=O)[C@H](CCCNC(=N)N)NC(=O)[C@H](CCCCN)NC(=O)[C@H](CCCCN)NC(=O)[C@@H](CCCNC(=N)N)NC(=O)CNC(=O)[C@@H](N)Cc1ccc(O)cc1)C(=O)O` [TAT-3] (H-YG[dR]KKR[dR]Q[dR]R-OH), for which the figures for the half-life at 10 μM in data set [3] (plasma) and in data set [3] (plasma with added rt-PA) were 21.7 h and 27.5 h, respectively.

Take `N=C(N)NCCC[C@H](NC(=O)[C@H](CCCNC(=N)N)NC(=O)[C@@H](CCCNC(=N)N)NC(=O)[C@H](CCC(=O)O)NC(=O)[C@@H](CCCNC(=N)N)NC(=O)[C@H](CCCNC(=N)N)NC(=O)[C@H](CCCCN)NC(=O)[C@H](CCCCN)NC(=O)[C@@H](CCCNC(=N)N)NC(=O)CNC(=O)[C@@H](N)Cc1ccc(O)cc1)C(=O)O` [TAT-4]: the half-life at 10 μM in data set [3] (setting [8]) is 14.9 h; in data set [3] (setting [7]), 11.9 h.

In the case of `CNC(=N)NCCC[C@H](NC(=O)[C@H](CCC(N)=O)NC(=O)[C@@H](CCCNC(=N)N)NC(=O)[C@H](CCCNC(=N)N)NC(=O)[C@H](CCCCN)NC(=O)[C@H](CCCCN)NC(=O)[C@@H](CCCNC(=N)N)NC(=O)CNC(=O)[C@@H](N)Cc1ccc(O)cc1)C(=O)N[C@@H](CCCNC(=N)N)C(=O)N[C@@H](CCCNC(=N)N)C(=O)O` [TAT-5], the half-life at 10 μM is 12.3 h in data set [3] (setting [8]) and > 33.3 h in data set [3] (setting [7]).

For `CNC(=N)NCCC[C@H](NC(=O)[C@H](CCC(=O)O)NC(=O)[C@@H](CCCNC(=N)N)NC(=O)[C@H](CCCNC(=N)N)NC(=O)[C@H](CCCCN)NC(=O)[C@H](CCCCN)NC(=O)[C@@H](CCCNC(=N)N)NC(=O)CNC(=O)[C@@H](N)Cc1ccc(O)cc1)C(=O)N[C@@H](CCCNC(=N)N)C(=O)N[C@@H](CCCNC(=N)N)C(=O)O` [TAT-6], the results for the half-life at 10 μM in data set [3] (setting [8]) and in data set [3] (setting [7]) were 4.3 h and 2.83 h, respectively.
